Assay results as given in patent US9078856B2, “Improving efficacy of cancer therapy” (CHILDREN'S MEDICAL CENTER CORPORATION, priority 2010, dated 2015).

Key:
[1] = target: T1, human TRPV4 (Homo sapiens, UniProt Q9HBA0); assay: Calcium influx in TEC transfected with human TRPV4-EGFP construct; format: cell-based
T1 construct: expressed in transfected cells; host or cells: mouse tumor endothelial cells (TEC) from TRAMP mice, Amaxa nucleofection
Procedure: (§1) EC cells adherent to the flexible substrates were loaded with Fluo-4/AM (1 μM) for 30 min, washed 3 times in calcium medium (136 mM NaCl, 4.7 mM KCl, 1.2 mM MgSO4, 1.1 mM CaCl2, 1.2 mM KH2PO4, 5 mM NaHCO3, 5.5 mM glucose, and 20 mM Hepes. pH 7.4) and then exposed to mechanical strain (15% elongation) for 3-4 sec using a Stage Flexer (FLEXCELL® International) apparatus that is fixed on a Nikon upright microscope equipped with CCD camera (Spot-RT slider, Diagnostics Corp, USA). Images were acquired for every 4 seconds and analyzed using IP lab software and Microsoft Excel as described in Matthews, et al. (2006) (J. Cell Sci., 119:508-518).
Next, the inventors transfected TEC with a human TRPV4-EGFP construct and checked its ability to rescue aberrant mechanosensation of tumor EC. […] TRPV4 activator, 4-α-PDD induced almost 8 fold increase in calcium in these cells compared to EGFP alone-transfected TEC (FIG. 2A). The inventors then cultured these TRPV4-overexpressing cells on transglutamase linked gelatin gels of various stiffness (98 to 2,280 Pa) for 6 h and compared their cell spreading over time with that of EGFP-transfected TEC (control). As expected and shown in FIGS. 2B and 2C, TEC cells transfected with only EGFP attached, spread and increases their degree of spreading with the increasing gel stiffness. […]

[2] = target: T2, TRPV4 (Mus musculus, UniProt Q9EPK8); assay: Calcium influx in Fluo-4 loaded normal and tumor endothelial cells in response to TRPV4 activator; format: cell-based; details: Fluo-4 loaded cells
T2 construct: normal EC that were isolated from the dermis (MDEC cells) of TRAMP mice were used instead; endogenous in cells; host or cells: tumor endothelial cells (TEC) from TRAMP mouse prostate adenocarcinoma; normal EC (MDEC) from TRAMP mouse dermis
T2 sequence (Q9EPK8 whole entry): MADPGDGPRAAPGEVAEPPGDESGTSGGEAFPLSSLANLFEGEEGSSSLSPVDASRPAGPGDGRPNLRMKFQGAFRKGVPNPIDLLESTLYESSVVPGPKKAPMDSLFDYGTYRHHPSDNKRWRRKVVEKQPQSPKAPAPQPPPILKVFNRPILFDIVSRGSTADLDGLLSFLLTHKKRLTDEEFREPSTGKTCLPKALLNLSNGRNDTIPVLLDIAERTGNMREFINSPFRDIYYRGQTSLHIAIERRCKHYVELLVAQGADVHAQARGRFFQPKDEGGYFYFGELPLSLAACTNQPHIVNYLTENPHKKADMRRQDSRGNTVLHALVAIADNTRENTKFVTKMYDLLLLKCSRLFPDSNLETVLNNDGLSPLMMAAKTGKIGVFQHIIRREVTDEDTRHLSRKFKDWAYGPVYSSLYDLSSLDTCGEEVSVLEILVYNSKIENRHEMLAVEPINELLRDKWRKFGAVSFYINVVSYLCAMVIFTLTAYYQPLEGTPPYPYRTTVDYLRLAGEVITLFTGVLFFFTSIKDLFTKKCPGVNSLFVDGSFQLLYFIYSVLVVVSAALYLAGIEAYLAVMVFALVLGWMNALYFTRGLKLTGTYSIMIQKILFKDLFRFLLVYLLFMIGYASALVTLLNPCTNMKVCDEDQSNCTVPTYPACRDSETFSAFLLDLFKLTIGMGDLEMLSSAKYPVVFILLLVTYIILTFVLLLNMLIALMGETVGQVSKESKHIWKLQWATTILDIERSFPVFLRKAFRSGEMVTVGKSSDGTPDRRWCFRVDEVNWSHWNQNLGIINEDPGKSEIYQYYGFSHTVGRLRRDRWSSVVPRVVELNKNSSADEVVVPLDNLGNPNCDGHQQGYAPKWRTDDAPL
Excerpt: Cell Culture. Tumor endothelial cells (EC) cells were isolated from transgenic TRAMP mice bearing prostate adenocarcinoma. Because it is difficult to obtain sufficient quantities of EC cells from the normal mouse prostate (due to its small size), normal EC that were isolated from the dermis (MDEC cells) of TRAMP mice were used instead. Normal EC cells from human dermis (HDEC cells; Cambrex) and an established mouse pancreatic EC cell line (MS1-EC cells; gift of Judah Folkman) served as independent non-tumor EC cell controls. […]
as §1
To confirm whether this difference in TRPV4 expression affects TRPV4 function in these cells, the inventors measured calcium influx in Fluo-4 loaded cells in response to specific TRPV4 activator 4-α-PDD.

T1 sequence (Q9HBA0 whole entry): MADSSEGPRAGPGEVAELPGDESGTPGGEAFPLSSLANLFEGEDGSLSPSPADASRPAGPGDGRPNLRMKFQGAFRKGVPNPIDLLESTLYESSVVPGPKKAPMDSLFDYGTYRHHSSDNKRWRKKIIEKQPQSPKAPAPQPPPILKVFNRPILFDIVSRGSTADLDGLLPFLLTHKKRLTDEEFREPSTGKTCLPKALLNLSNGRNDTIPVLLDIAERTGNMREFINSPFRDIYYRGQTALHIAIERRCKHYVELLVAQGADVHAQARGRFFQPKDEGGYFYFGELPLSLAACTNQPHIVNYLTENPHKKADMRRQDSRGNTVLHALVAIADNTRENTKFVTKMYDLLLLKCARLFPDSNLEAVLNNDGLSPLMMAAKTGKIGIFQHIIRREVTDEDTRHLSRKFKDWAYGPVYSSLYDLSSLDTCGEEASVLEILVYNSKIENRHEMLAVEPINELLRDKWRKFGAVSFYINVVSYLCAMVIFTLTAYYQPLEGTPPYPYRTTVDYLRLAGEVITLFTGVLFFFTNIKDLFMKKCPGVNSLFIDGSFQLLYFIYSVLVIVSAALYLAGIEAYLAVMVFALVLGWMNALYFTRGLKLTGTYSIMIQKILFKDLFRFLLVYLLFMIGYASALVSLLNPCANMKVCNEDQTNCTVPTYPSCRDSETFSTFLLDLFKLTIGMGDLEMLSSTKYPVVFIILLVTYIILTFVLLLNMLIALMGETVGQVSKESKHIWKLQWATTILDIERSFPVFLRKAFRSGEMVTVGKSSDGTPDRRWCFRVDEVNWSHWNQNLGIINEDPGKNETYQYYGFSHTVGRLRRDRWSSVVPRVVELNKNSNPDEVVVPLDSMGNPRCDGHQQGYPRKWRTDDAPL

## CCCCCCCCCC(=O)O[C@@H]1[C@@H](C)[C@@]2(O)[C@@H](C=C(CO)C[C@@]3(O)C(=O)C(C)=C[C@@H]23)[C@@H]2C(C)(C)[C@]12OC(=O)CCCCCCCCC [4-α-PDD, 4-α-phorbol 12,13-didecanoate]
[1]
  increase in calcium compared to EGFP alone-transfected TEC: ~8 fold
[2]; normal EC (nEC)
  calcium influx induced in nEC: rapid robust calcium influx
[2]; tumor EC vs nEC
  reduction of induced calcium influx in tumor EC compared with nEC: ~40%
